Each compound was assayed against BCL2 (Homo sapiens (Human), UniProt P10415) (assay: Molecular level activity test of anti-apoptotic protein BCL2 (HTRF, binding to Bim peptide)). Details: HTRF, binding of BCL2 to Bim peptide; read-out: BCL2 nM (inhibitory activity, IC50).
BCL2, sequence (P10415 whole entry): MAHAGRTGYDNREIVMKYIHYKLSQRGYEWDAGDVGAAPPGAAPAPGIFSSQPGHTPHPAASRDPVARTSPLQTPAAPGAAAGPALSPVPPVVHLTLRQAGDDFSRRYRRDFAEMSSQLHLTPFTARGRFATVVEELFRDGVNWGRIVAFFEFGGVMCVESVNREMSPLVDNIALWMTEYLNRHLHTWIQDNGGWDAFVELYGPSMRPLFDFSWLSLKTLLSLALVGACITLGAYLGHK
How it was run: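 Competition binding format: recombinant His-BCL2 and a biotin-Bim peptide are incubated with compound for 1 h, followed by 4 h at room temperature with HTRF detection antibodies.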
`COc1ccc(CN2CCN(C3CC4(CCN(c5cc(Oc6cnc7[nH]ccc7c6)c(C(=O)NS(=O)(=O)c6ccc(NCC7(F)CCOCC7)c([N+](=O)[O-])c6)cc5F)CC4)C3)[C@@H](c3ccccc3C(C)C)C2)cc1` [compound 153, (S)-2-((1H-pyrrolo[2,3-b]pyrid-5-yl)oxy)-5-fluoro-N-((4-(((4-fluorotetrahydro-2H-pyran-4-yl)methyl)amino)-3-nitrophenyl)sulfonyl)-4-(2-(2-(2-isopropylphenyl)-4-(4-methoxybenzyl)piperazin-1-yl)-7-azaspiro[3.5]non-7-yl)benzamide] gave an IC50 of under 10 nM.
`CC(C)c1ccccc1[C@@H]1CCCN1C1CC2(CCN(c3cc(Oc4cnc5[nH]cc(F)c5c4)c(C(=O)NS(=O)(=O)c4cc([N+](=O)[O-])c(NC[C@H]5CC[C@](C)(O)CC5)c5[nH]cnc45)cn3)CC2)C1` [compound 037, 4-((3-fluoro-1H-pyrrolo[2,3-b]pyrid-5-yl)oxy)-N-((7-((((1r,4r)-4-hydroxy-4-methylcyclohexyl)methyl)amino)-6-nitro-1H-benzo[d]imidazol-4-yl)sulfonyl)-6-(2-((S)-2-(2-isopropylphenyl)pyrrolidin-1-yl)-7-azaspiro[3.5]non-7-yl) nicotinamide] gave an IC50 of under 10 nM.
Work on `COc1ccc(CN2CCN(C3CC4(C3)CN(c3cc(Oc5cnc6[nH]ccc6c5)c(C(=O)NS(=O)(=O)c5cc([N+](=O)[O-])c(NC[C@H]6CC[C@](C)(O)CC6)c6[nH]cnc56)cc3F)C4)C(c3ccccc3C(C)C)C2)cc1` (stereo partly drawn) [compound 072, 2-((1H-pyrrolo[2,3-b]pyrid-5-yl)oxy)-5-fluoro-N-((7-((((1r,4r)-4-hydroxy-4-methylcyclohexyl)methyl)amino)-6-nitro-1H-benzo[d]imidazol-4-yl)sulfonyl)-4-(6-(2-(2-isopropylphenyl)-4-(4-methoxybenzyl)piperazin-1-yl)-2-azaspiro[3.3]hept-2-yl)benzamide] yielded an IC50 of under 10 nM.
`CC(C)c1ccccc1[C@@H]1CCCN1C1CC2(CCN(c3cc(Oc4cnc5[nH]ccc5c4)c(C(=O)NS(=O)(=O)c4cc([N+](=O)[O-])c(NC[C@H]5CC[C@](C)(O)CC5)c5c4ncn5C)cn3)CC2)C1` [compound 035, 4-((1H-pyrrolo[2,3-b]pyrid-5-yl)oxy)-N-((7-((((1r,4r)-4-hydroxy-4-methylcyclohexyl)methyl)amino)-1-methyl-6-nitro-1H-benzo[d]imidazol-4-yl)sulfonyl)-6-(2-((S)-2-(2-isopropylphenyl)pyrrolidin-1-yl)-7-azaspiro[3.5]non-7-yl) nicotinamide] was tested, and the IC50 was under 10 nM.
Compound `COc1ccc(CN2CCN(C3CC4(CCN(c5ccc(C(=O)NS(=O)(=O)c6cc([N+](=O)[O-])c(NCC7(F)CCOCC7)c7[nH]cnc67)c(Oc6cnc7[nH]ccc7c6)c5)CC4)C3)C(c3ccccc3C(C)C)C2)cc1` (stereo not drawn) [compound 047, 2-((1H-pyrrolo[2,3-b]pyrid-5-yl)oxy)-N-((7-(((4-fluorotetrahydro-2H-pyran-4-yl)methyl)amino)-6-nitro-1H-benzo[d]imidazol-4-yl)sulfonyl)-4-(2-(2-(2-isopropylphenyl)-4-(4-methoxybenzyl)piperazin-1-yl)-7-azaspiro[3.5]non-7-yl)benzamide] has an IC50 of under 10 nM.
For `COc1ccc(CN2CCN(C3CC4(CCN(c5ccc(C(=O)NS(=O)(=O)c6cc([N+](=O)[O-])c(NC[C@H]7CC[C@](C)(O)CC7)c7[nH]cnc67)c(N6CCOc7nc8[nH]ccc8cc76)c5)CC4)C3)C(c3ccccc3C(C)C)C2)cc1` (stereo partly drawn) [compound 089, 2-(2,3-dihydropyrrolo[3′,2′:5,6]pyridino[2,3-b][1,4]oxazin-1 (6H)-yl)-N-((7-((((1r,4r)-4-hydroxy-4-methylcyclohexyl)methyl)amino)-6-nitro-1H-benzo[d]imidazol-4-yl)sulfonyl)-4-(2-(2-(2-isopropylphenyl)-4-(4-methoxybenzyl)piperazin-1-yl)-7-azaspiro[3.5]non-7-yl)benzamide], the IC50 was under 10 nM.

Reference: patent US20250034135A1, “ANTI-APOPTOTIC PROTEIN BCL-2 INHIBITOR, PHARMACEUTICAL COMPOSITION AND USES THEREOF” (HANGZHOU HEALZEN THERAPEUTICS CO., LTD., priority 2021, published 2025)
